The target of the assay is USP30 (Homo sapiens (Human), UniProt Q70CQ3). Put plainly: USP30 biochemical IC50 assay. The settings on record: read-out: IC50 range; fluorescence polarisation, TAMRA labelled peptide linked to ubiquitin; 30 min pre-incubation, read after 2 hr.

The structures appear in SMILES notation. pIC50: −log10 of the molar value.

The record followed here is patent publication US11091488B2 (MISSION THERAPEUTICS LIMITED, priority 2015, dated 2021).

Sequence of USP30 (Q70CQ3 57-517): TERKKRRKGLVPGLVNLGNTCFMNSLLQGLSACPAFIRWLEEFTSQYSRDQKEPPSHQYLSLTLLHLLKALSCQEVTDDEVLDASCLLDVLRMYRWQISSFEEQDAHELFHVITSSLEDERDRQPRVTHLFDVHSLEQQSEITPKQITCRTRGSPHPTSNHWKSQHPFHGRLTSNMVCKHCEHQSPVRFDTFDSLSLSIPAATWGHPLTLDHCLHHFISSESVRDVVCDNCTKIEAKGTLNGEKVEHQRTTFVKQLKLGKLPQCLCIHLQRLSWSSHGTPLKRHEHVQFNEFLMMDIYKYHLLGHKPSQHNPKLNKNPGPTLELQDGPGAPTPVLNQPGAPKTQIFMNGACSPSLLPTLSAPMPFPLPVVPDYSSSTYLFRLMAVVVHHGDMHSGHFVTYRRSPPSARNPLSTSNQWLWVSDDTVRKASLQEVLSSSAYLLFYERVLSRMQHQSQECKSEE
Description: USP30 Biochemical IC50 Assay
Dilution plates were prepared at 21 times the final concentration (2100 μM for a final concentration of 100 μM) in 50% DMSO in a 96-well polypropylene V-bottom plate (Greiner #651201). A typical 8-point dilution series to be 100, 30, 10, 3, 1, 0.3, 0.1, 0.03 μM final. Reactions were performed in duplicate in black 384 well plates (small volume, Greiner 784076) in a final reaction volume of 21 μl. Either 1 μl of 50% DMSO or diluted compound was added to the plate. USP30 was diluted in reaction buffer (40 mM Tris, pH 7.5, 0.005% Tween 20, 0.5 mg/ml BSA, 5 mM—beta-mercaptoethanol) to the equivalent of 0.05 μl/well and 10 μl of diluted USP30 was added to the compound. Enzyme and compound were incubated for 30 min at room temp. Reactions were initiated by the addition of 50 nM of TAMRA labelled peptide linked to ubiquitin via an iso-peptide bond as fluorescence polarisation substrate. Reactions were read immediately after addition of substrate and following a 2 hr incubation at room temperature. Readings were performed on a Pherastar Plus (BMG Labtech). λ Excitation 540 nm; λ Emission 590 nm.

The pIC50 is the negative decadic logarithm of the IC50, by convention in mol/L. Regarding `N#CN1CC[C@@H](N2CCCN(c3cccc(N4CCOCC4)c3)S2(=O)=O)C1` [Example 25, (R)-3-(6-(3-morpholinophenyl)-1,1-dioxido-1,2,6-thiadiazinan-2-yl)pyrrolidine-1-carbonitrile], the pIC50 is 5.00 to 6.00. Consider `Cn1cc(-c2cccc(N3CCCN([C@@H]4CCN(C#N)C4)S3(=O)=O)c2)cn1` [Example 21, (R)-3-(6-(3-(1-methyl-1H-pyrazol-4-yl)phenyl)-1,1-dioxido-1,2,6-thiadiazinan-2-yl)pyrrolidine-1-carbonitrile], for which the negative logarithm of the IC50 (pIC50) is 6.00 to 7.00.

Consider `N#CN1CC[C@H](N2CCN(c3cccc(-c4ccccc4)n3)S2(=O)=O)C1` [Example 36, (S)-3-(1,1-dioxido-5-(6-phenylpyridin-2-yl)-1,2,5-thiadiazolidin-2-yl)pyrrolidine-1-carbonitrile], for which the pIC50 is > 7.00. In the case of `CN1c2ccccc2N([C@@H]2CCN(C#N)C2)S1(=O)=O` [Example 66, (R)-3-(3-methyl-2,2-dioxidobenzo[c][1,2,5]thiadiazol-1(3H)-yl)pyrrolidine-1-carbonitrile] it was 5.00 to 6.00. With `N#CN1CC[C@H](N2CCN(c3ccccc3)S2(=O)=O)C1` [Example 31, (S)-3-(1,1-dioxido-5-phenyl-1,2,5-thiadiazolidin-2-yl)pyrrolidine-1-carbonitrile], the pIC50 is 5.00 to 6.00.

Turning to `COc1ccc(N2CCN([C@@H]3CCN(C#N)C3)S2(=O)=O)cc1-c1ccccc1` [Example 42, (R)-3-(5-(6-methoxy-[1,1′-biphenyl]-3-yl)-1,1-dioxido-1,2,5-thiadiazolidin-2-yl)pyrrolidine-1-carbonitrile], the negative-log IC50 (pIC50) was > 7.00. In the case of `C[C@H]1CN(C#N)C[C@@H]1N1CCN(c2ccc(-c3ccccc3)cc2)S1(=O)=O` [Example 39, (3R,4S)-3-(5-([1,1′-biphenyl]-4-yl)-1,1-dioxido-1,2,5-thiadiazolidin-2-yl)-4-methylpyrrolidine-1-carbonitrile] it was > 7.00.

As for `COC1CN(c2cc(N3CCN([C@@H]4CCN(C#N)C4)S3(=O)=O)ccn2)C1` [Example 55, (R)-3-(5-(2-(3-methoxyazetidin-1-yl)pyridin-4-yl)-1,1-dioxido-1,2,5-thiadiazolidin-2-yl)pyrrolidine-1-carbonitrile], the negative logarithm of the IC50 (pIC50) was 6.00 to 7.00. Take `N#CN1CC[C@H](N2CCN(c3cccc(-c4ccccc4)c3)S2(=O)=O)C1` [Example 35, (S)-3-(5-([1,1′-biphenyl]-3-yl)-l,1-dioxido-1,2,5-thiadiozolidin-2-yl)pyrrolidine-1-carbonitrile]: the pIC50 is > 7.00. In the case of `N#CN1CCC(NS(=O)(=O)N2CCc3ccccc32)C1` (stereo not shown) [Example 61, N-(1-cyanopyrrolidin-3-yl)indoline-1-sulfonamide] it was 5.00 to 6.00.

Turning to `CO[C@@H]1CCN(c2cccc(N3CCN([C@@H]4CCN(C#N)C4)S3(=O)=O)c2)C1` [Example 53, (R)-3-(5-(3-((R)-3-methoxypyrrolidin-1-yl)phenyl)-1,1-dioxido-1,2,5-thiadiazolidin-2-yl)pyrrolidine-1-carbonitrile], the pIC50 was 6.00 to 7.00. For `N#CN1CCC(NS(=O)(=O)Nc2cccc(-c3ccccc3)c2)C1` (stereo not shown) [Example 57, N-biphenyl-3-yl-N′-(1-cyanopyrrolidin-3-yl)sulfuric diamide] the value was 6.00 to 7.00; for `COc1ccc2c(c1)CCN(S(=O)(=O)N[C@@H]1CCN(C#N)C1)C2` [Example 65, (R)—N-(1-cyanopyrrolidin-3-yl)-6-methoxy-3,4-dihydroisoquinoline-2(1H)-sulfonamide], 6.00 to 7.00; for `N#CN1CC[C@H](N2CCN(c3ccc(-c4ccncc4)cc3)S2(=O)=O)C1` [Example 32, (S)-3-(1,1-dioxido-5-(4-(pyridin-4-yl)phenyl)-1,2,5-thiadiazolidin-2-yl)pyrrolidine-1-carbonitrile], > 7.00. On to `N#CN1CCC(N2CCN(c3ccccc3)S2(=O)=O)C1` (stereo not shown) [Example 37, 3-(1,1-dioxido-5-phenyl-1,2,5-thiadiazolidin-2-yl)pyrrolidine-1-carbonitrile], for which the negative logarithm of the IC50 (pIC50) is 6.00 to 7.00. In the case of `N#CN1CC[C@H](N2CCN(c3cccc(-c4ccncc4)c3)S2(=O)=O)C1` [Example 33, (S)-3-(1,1-dioxido-5-(3-(pyridin-4-yl)phenyl)-1,2,5-thiadiazolidin-2-yl)pyrrolidine-l-carbonitrile] it was > 7.00. Consider `N#CN1CC[C@H](N2CCN(c3cccc(-c4ccccn4)c3)S2(=O)=O)C1` [Example 47, (S)-3-(1,1-dioxido-5-(3-(pyridin-2-yl)phenyl)-1,2,5-thiadiazolidin-2-yl)pyrrolidine-1-carbonitrile], for which the pIC50 is 6.00 to 7.00. For `CN(c1ccccc1)S(=O)(=O)N(C)C1CCN(C#N)C1` (stereo not shown) [Example 76, N-(1-cyanopyrrolidin-3-yl)-N,N′-dimethyl-N′-phenylsulfuric diamide] the value was 5.00 to 6.00.

Turning to `N#CN1CC[C@@H](N2CCN(c3ccnc(N4CCOCC4)c3)S2(=O)=O)C1` [Example 50, (R)-3-(5-(2-morpholinopyridin-4-yl)-1,1-dioxido-1,2,5-thiadiazolidin-2-yl)pyrrolidine-1-carbonitrile], the pIC50 was > 7.00. As for `N#CN1CC[C@@H](N2CCN(c3cccc(-c4ccccc4)c3)S2(=O)=O)C1` [Example 13, (R)-3-(5-([1,1′-biphenyl]-3-yl)-1,1-dioxido-1,2,5-thiadiazolidin-2-yl)pyrrolidine-1-carbonitrile], the pIC50 was > 7.00. For `N#CN1CC[C@@H](N2CCN(c3ccc(N4CCOCC4)cc3)S2(=O)=O)C1` [Example 22, (R)-3-(5-(4-morpholinophenyl)-1,1-dioxido-1,2,5-thiadiazolidin-2-yl)pyrrolidine-1-carbonitrile] the value was 6.00 to 7.00; for `C[C@H]1CN(C#N)C[C@@H]1N1CCN(c2cccc(N3CCN(C)CC3)c2)S1(=O)=O` [Example 40, (3S,4R)-3-methyl-4-(5-(3-(4-methylpiperazin-1-yl)phenyl)-1,1-dioxido-1,2,5-thiadiazolidin-2-yl)pyrrolidine-1-carbonitrile], 6.00 to 7.00. For `N#CN1CC[C@@H](N2CCN(c3ccc4nc(C(F)(F)F)[nH]c4c3)S2(=O)=O)C1` [Example 44, (R)-3-(1,1-dioxido-5-(2-(trifluoromethyl)-1H-benzo[d]imidazol-5-yl)-1,2,5-thiadiazolidin-2-yl)pyrrolidine-1-carbonitrile] the value was 6.00 to 7.00; for `COc1ccccc1-c1ccc(N2CCN([C@@H]3CCN(C#N)C3)S2(=O)=O)cc1` [Example 17, (R)-3-(5-(2′-methoxy-[1,1′-biphenyl]-4-yl)-1,1-dioxido-1,2,5-thiadiazolidin-2-yl)pyrrolidine-l-carbonitrile], > 7.00.

As to `CO[C@@H]1CCN(c2cc(N3CCN([C@@H]4CCN(C#N)C4)S3(=O)=O)ccn2)C1` [Example 54, (R)-3-(5-(2-((R)-3-methoxypyrrolidin-1-yl)pyridin-4-yl)-1,1-dioxido-1,2,5-thiadiazolidin-2-yl)pyrrolidine-1-carbonitrile], the negative logarithm of the IC50 (pIC50) is 6.00 to 7.00. As for `N#CN1CC[C@@H](N2c3ccccc3N(Cc3ccccc3)S2(=O)=O)C1` [Example 67, (R)-3-(3-benzyl-2,2-dioxidobenzo[c][1,2,5]thiadiazol-1(3H)-yl)pyrrolidine-1-carbonitrile], the negative-log IC50 (pIC50) is 6.00 to 7.00. As to `N#CN1CC[C@@H](N2CCN(c3ccc4c(c3)OCC(=O)N4)S2(=O)=O)C1` [Example 3, (R)-3-(1,1-dioxido-5-(3-oxo-3,4-dihydro-2H-benzo[b][1,4]oxazin-7-yl)-1,2,5-thiadiazolidin-2-yl)pyrrolidine-1-carbonitrile], the pIC50 is 6.00 to 7.00.

Turning to `N#CN1CC[C@@H](N2CCCN(c3cc(-c4ccccc4)no3)S2(=O)=O)C1` [Example 27, (R)-3-(1,1-dioxido-6-(3-phenylisoxazol-5-yl)-1,2,6-thiadiazinan-2-yl)pyrrolidine-1-carbonitrile], the negative logarithm of the IC50 (pIC50) is 6.00 to 7.00. In the case of `COc1cccc(-c2cccc(N3CCN([C@@H]4CCN(C#N)C4)S3(=O)=O)c2)c1` [Example 16, (R)-3-(5-(3′-methoxy-[1,1′-biphenyl]-3-yl)-1,1-dioxido-1,2,5-thiadiazolidin-2-yl)pyrrolidine-1-carbonitrile] it was > 7.00. For the compound `N#CN1CC[C@@H](NS(=O)(=O)Nc2ccc3nc(C(F)(F)F)[nH]c3c2)C1` [Example 45], the pIC50 is 5.00 to 6.00. In the case of `N#CN1CC[C@@H](N2CCN(c3ccc4c(c3)NC(=O)CO4)S2(=O)=O)C1` [Example 5, (R)-3-(1,1-dioxido-5-(3-oxo-3,4-dihydro-2H-benzo[b][1,4]oxazin-6-yl)-1,2,5-thiadiazolidin-2-yl)pyrrolidine-1-carbonitrile] it was > 7.00; in that of `COc1ccc(-c2ccccc2)cc1N1CCN([C@@H]2CCN(C#N)C2)S1(=O)=O` [Example 15, (R)-3-(5-(4-methoxy-[1,1′-biphenyl]-3-yl)-1,1-dioxido-1,2,5-thiadiazolidin-2-yl)pyrrolidine-1-corbonitrile], > 7.00. For `Cn1cc(-c2cccc(N3CCN([C@@H]4CCN(C#N)C4)S3(=O)=O)c2)cn1` [Example 20, (R)-3-(5-(3-(1-methyl-1H-pyrazol-4-yl)phenyl)-1,1-dioxido-1,2,5-thiadiazolidin-2-yl)pyrrolidine-1-corbonitrile] the value was > 7.00. In the case of `N#CN1CC[C@@H](N2CCCN(c3cc(-c4ccccc4)n[nH]3)S2(=O)=O)C1` [Example 29, (R)-3-(1,1-dioxido-6-(3-phenyl-1H-pyrazol-5-yl)-l,2,6-thiadiazinan-2-yl)pyrrolidine-1-carbonitrile] it was 6.00 to 7.00.
